{"source": "patent EP3501280A1", "about": "“COMPOSITION COMPRISING AN AGROCHEMICALLY ACTIVE COMPOUND AND A CARBONATE” (priority 2017, dated 2019)", "key": {"[1]": {"conditions": "at 20°C; cited from earlier work"}, "[2]": {"experiment": "Solubility of carbonates in water (OECD guideline 105, flask method)", "type": "physicochemical", "conditions": "for Solubility of carbonates in water: OECD 105 flask method", "source_text": "The water solubility of a substance is the saturation mass concentration of the substance in water at a given temperature. Determination according to OECD guideline for testing of chemicals 105, flask method."}, "[3]": {"experiment": "Determination of boiling point of carbonates", "type": "physicochemical", "conditions": "calculated from boiling point measured at a pressure below 101.3 kPa", "procedure": "(§1) Determination of boiling point: measured at a pressure below 101.3 kPa; the boiling point measured at this pressure below 101.3 kPa were used to calculate the boiling point at 101.3 kPa by using the following tool: http://www.calctool.org/CALC/chem/substance/boiling. Determination of dynamic viscosity: By using Anton Paar viscosimeter SVM 3000/G2, viscosity was measured at 23°C. Said Anton Paar viscosimeter is a rotational viskosimeter and works according the Stabinger measurement principle."}, "[4]": {"experiment": "Determination of dynamic viscosity (Anton Paar viscosimeter SVM 3000/G2)", "type": "physicochemical", "conditions": "dynamic viscosity at 23°C", "procedure": "as §1"}, "[5]": {"test_system": "Blumeria graminis f. sp. hordei (type A6)", "experiment": "Protective leaf-segment test on barley", "type": "in vivo", "conditions": "barley (HORVX), 2 WAT; for Effect [%]: infestation relative to no carbonate", "procedure": "(§2) Plants tested: barley (HORVX); cultivation of plants: three plants per pot were cultivated in fine Frustorfer soil for three weeks.\nThe plants were treated with the following SC formulation: fungicidal formulation - 25% by weight azoxystrobin, 16.7% by weight Tamol® NN 2901, 10% by weight propyleneglycol, 48.3% by weight water. The effect of a carbonate (numbering according to Table 1 above) was tested by adding the respective carbonate to the […] formulation prior to treatment of the plants.\n10 hours after treatment with fungicidal formulation, beginning from the stalk, 7 cm leaf segments have been cut; the most recent and the second most recent leaf of a plant were used. 15 pieces of said 7 cm leaf segments were collected and put onto benzimidazole-agar (0.5% agar, 40 ppm benzimidazole added after treatment by autoclave).\nThe leaf segments on the agar plates were inoculated with fresh conidia of Blumeria graminis f. sp. hordei (type A6).\nThe agar plates (10x10cm) were then incubated at 18°C during night time and 23°C during day time at 60-70% air moisture in an incubator for a certain time.\nThe determination of the mildew infestation was carried out by determining the surface per leaf within 5 cm leaf length infested with mildew. WAT (weeks after treatment) were chosen according to constant impairment observed."}, "[6]": {"test_system": "Blumeria graminis f. sp. hordei (type A6)", "experiment": "Curative leaf-segment test on barley", "type": "in vivo", "conditions": "barley (HORVX), 2 WAT; for Effect [%]: pustules relative to no carbonate", "procedure": "as §2\nThe plants were inoculated with fresh conidia of Blumeria graminis f. sp. hordei (type A6). 24-48h after inoculation with mildew, the plants were treated with the following liquid formulation: fungicidal formulation OPUS® SC 125 (BASF SE; comprising epoxiconazole). The effect of a carbonate (numbering according to Table 1 above) was tested by adding the respective carbonate to the liquid formulation prior to treatment of the plants.\n10 hours after treatment with fungicidal formulation, beginning from the stalk, 7 cm leaf segments were cut; the most recent leaf and the second most recent leaf of a plant were used. 15 pieces of said 7 cm leaf segments were collected and put onto benzimidazole-agar (0.5% agar, 40 ppm benzimidazole added after treatment by autoclave. The agar plates (10x10cm) were then incubated at 18°C during night time and at 23°C during day time at 60-70% air moisture in an incubator for a certain time.\nThe determination of the mildew infestation was carried out by mildew pustules per leaf within 5 cm leaf length. WAT (weeks after treatment) were chosen according to constant impairment observed. Table Ex6b: Dosing of agrochemically active compound with and without component (b) in curative leaf-segment test on barley (HORVX) and the infestation of mildew after WAT"}, "[7]": {"conditions": "azoxystrobin 10 g/ha SC formulation plus carbonate No 1 at 50 g/ha"}, "[8]": {"conditions": "epoxiconazole 10 g/ha (OPUS® SC 125) plus carbonate No 1 at 50 g/ha"}, "[9]": {"conditions": "azoxystrobin 10 g/ha SC formulation, amount of carbonate 0 g/ha"}, "[10]": {"conditions": "epoxiconazole 10 g/ha (OPUS® SC 125), amount of carbonate 0 g/ha"}}}
{"compound": "CC(O)(Cn1cncn1)c1ccc(Oc2ccc(Cl)cc2)cc1C(F)(F)F", "note": "(stereo not shown) [pesticide 7, mefentrifluconazole]", "values": [{"measurement": "Solubility in H2O (data from literature*)", "setting": "[1]", "result": 0.81, "unit": "mg/l at 20 °C"}]}
{"compound": "CC1COC(=O)O1", "note": "(stereo not shown) [propylene carbonate, reference compound]", "values": [{"measurement": "water solubility", "setting": "[2]; comparison value for propylene carbonate, source not stated", "result": 175, "unit": "g/L"}]}
{"compound": "CC(C)(C)C(O)(CCc1ccc(Cl)cc1)Cn1cncn1", "note": "(stereo not shown) [pesticide 5, tebuconazole]", "values": [{"measurement": "Solubility in H2O (data from literature*)", "setting": "[1]", "result": 29, "unit": "mg/l at 20 °C"}]}
{"compound": "CCC(=O)OCC1COC(=O)O1", "note": "(stereo not shown) [compound 1]", "values": [{"measurement": "Boiling point °C at 101.3 kPa", "setting": "[3]", "result": ">180", "unit": "°C"}, {"measurement": "Viscosity mPa.s at 23°C", "setting": "[4]", "result": 32, "unit": "mPa.s"}, {"measurement": "Solubility of carbonates in water", "setting": "[2]", "result": 54, "unit": "g carbonate per l water"}, {"measurement": "% leaf surface infested with mildew - average value of 15 leaves", "setting": "[5]; [7]", "result": 28, "unit": "%"}, {"measurement": "Effect [%]", "setting": "[5]; [7]", "result": 72.35, "unit": "%"}, {"measurement": "Mildew pustules - average value of 15 leaves", "setting": "[6]; [8]", "result": 34.7}, {"measurement": "Effect [%]", "setting": "[6]; [8]", "result": 84, "unit": "%"}]}
{"compound": "COC(=O)N(OC)c1ccccc1COc1ccn(-c2ccc(Cl)cc2)n1", "note": "[pesticide 3, pyraclostrobin]", "values": [{"measurement": "Solubility in H2O (data from literature*)", "setting": "[1]", "result": 1.9, "unit": "mg/l at 20 °C"}]}
{"compound": "CC(=O)OCC1COC(=O)O1", "note": "(stereo not shown) [compound 3]", "values": [{"measurement": "Boiling point °C at 101.3 kPa", "setting": "[3]", "result": ">180", "unit": "°C"}, {"measurement": "Viscosity mPa.s at 23°C", "setting": "[4]", "result": 59.1, "unit": "mPa.s"}, {"measurement": "Solubility of carbonates in water", "setting": "[2]", "result": 72, "unit": "g carbonate per l water"}]}
{"compound": "CO/C=C(/C(=O)OC)c1ccccc1Oc1cc(Oc2ccccc2C#N)ncn1", "note": "[pesticide 2, azoxystrobin, reference compound]", "values": [{"measurement": "% leaf surface infested with mildew - average value of 15 leaves", "setting": "[5]; [9]", "result": 38.7, "unit": "%"}, {"measurement": "Effect [%]", "setting": "[5]; [9]", "result": 100, "unit": "%"}, {"measurement": "Solubility in H2O (data from literature*)", "setting": "[1]", "result": 6.7, "unit": "mg/l at 20 °C"}]}
{"compound": "CCCC1COC(=O)O1", "note": "(stereo not shown) [compound 2]", "values": [{"measurement": "Boiling point °C at 101.3 kPa", "setting": "[3]", "result": ">180", "unit": "°C"}, {"measurement": "Viscosity mPa.s at 23°C", "setting": "[4]", "result": 4.2, "unit": "mPa.s"}, {"measurement": "Solubility of carbonates in water", "setting": "[2]", "result": 21, "unit": "g carbonate per l water"}]}
{"compound": "CC(Cc1ccc(C(C)(C)C)cc1)CN1C[C@@H](C)O[C@@H](C)C1", "note": "(stereo partly shown) [pesticide 9, fenpropimorph]", "values": [{"measurement": "Solubility in H2O (data from literature*)", "setting": "[1]", "result": 4.3, "unit": "mg/l at 20 °C"}]}
{"compound": "Cn1cc(C(=O)Nc2ccccc2-c2cc(F)c(F)c(F)c2)c(C(F)F)n1", "note": "[pesticide 8, fluxapyroxad]", "values": [{"measurement": "Solubility in H2O (data from literature*)", "setting": "[1]", "result": 3.88, "unit": "mg/l at 20 °C"}]}
{"compound": "Fc1ccc([C@]2(Cn3cncn3)O[C@H]2c2ccccc2Cl)cc1", "note": "(racemic) [pesticide 4, epoxiconazole, reference compound]", "values": [{"measurement": "Mildew pustules - average value of 15 leaves", "setting": "[6]; [10]", "result": 41.3}, {"measurement": "Effect [%]", "setting": "[6]; [10]", "result": 100, "unit": "%"}, {"measurement": "Solubility in H2O (data from literature*)", "setting": "[1]", "result": 8.42, "unit": "mg/l at 20 °C"}]}
